Laboratory results taken from US5639783A, “Ketone derivatives” (Mitsubishi Chemical Corporation, priority 1991, dated 1997).
Like-named read-outs stand apart in the source and are kept apart here.

How the values were obtained:
[1] = tested on: axon in brain trauma models of rat; settings: Journal of Neurosurgery, 65, p. 92 (1986); cited from earlier work
papain = molecular target: T1, papain (Carica papaya, UniProt P00784); experiment: Thiol protease inhibitory activity, papain (P-3125, Sigma); type: biochemical
T1 sequence (P00784 134-345): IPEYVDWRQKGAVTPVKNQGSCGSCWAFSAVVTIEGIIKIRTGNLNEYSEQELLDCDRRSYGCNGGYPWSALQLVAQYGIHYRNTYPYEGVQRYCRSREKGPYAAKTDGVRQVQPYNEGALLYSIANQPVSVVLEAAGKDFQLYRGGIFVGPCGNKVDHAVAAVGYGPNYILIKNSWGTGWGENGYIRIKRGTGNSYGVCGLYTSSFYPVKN
Summary of the method: (§1)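 Papain and bovine cathepsin B assayed by a published method; cathepsin L purified from rat kidney and assayed in the same manner as cathepsin B. m-Calpain purified from rat brain and assayed by a separate published procedure.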

cathepsin B = molecular target: T2, cathepsin B (Bos taurus, UniProt P07688); experiment: Thiol protease inhibitory activity, cathepsin B (C-6286, Sigma); type: biochemical; settings: Table 3
T2 construct: purchased Sigma C-6286
Summary of the method: as §1

cathepsin L = molecular target: T3, cathepsin L (Rattus norvegicus, UniProt P07154); experiment: Thiol protease inhibitory activity, cathepsin L purified from rat kidney; type: biochemical; settings: Table 3
T3 construct: Cathepsin L was purified from rat kidney; from tissue; host or cells: rat kidney
T3 sequence (P07154 114-334): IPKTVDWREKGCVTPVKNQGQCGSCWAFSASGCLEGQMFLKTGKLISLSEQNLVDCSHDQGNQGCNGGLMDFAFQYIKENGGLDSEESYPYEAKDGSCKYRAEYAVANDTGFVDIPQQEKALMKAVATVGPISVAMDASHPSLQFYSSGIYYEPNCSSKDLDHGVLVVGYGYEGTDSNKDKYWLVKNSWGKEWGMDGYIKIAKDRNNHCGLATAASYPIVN
Summary of the method: as §1

m-calpain [2] = molecular target: T4, m-calpain (Rattus norvegicus, UniProt Q07009); experiment: Thiol protease inhibitory activity, m-calpain purified from rat brain; type: biochemical; settings: Table 3
T4 construct: m-calpain was purified from rat brain; from tissue; host or cells: rat brain
T4 sequence (Q07009 20-700 limits assumed): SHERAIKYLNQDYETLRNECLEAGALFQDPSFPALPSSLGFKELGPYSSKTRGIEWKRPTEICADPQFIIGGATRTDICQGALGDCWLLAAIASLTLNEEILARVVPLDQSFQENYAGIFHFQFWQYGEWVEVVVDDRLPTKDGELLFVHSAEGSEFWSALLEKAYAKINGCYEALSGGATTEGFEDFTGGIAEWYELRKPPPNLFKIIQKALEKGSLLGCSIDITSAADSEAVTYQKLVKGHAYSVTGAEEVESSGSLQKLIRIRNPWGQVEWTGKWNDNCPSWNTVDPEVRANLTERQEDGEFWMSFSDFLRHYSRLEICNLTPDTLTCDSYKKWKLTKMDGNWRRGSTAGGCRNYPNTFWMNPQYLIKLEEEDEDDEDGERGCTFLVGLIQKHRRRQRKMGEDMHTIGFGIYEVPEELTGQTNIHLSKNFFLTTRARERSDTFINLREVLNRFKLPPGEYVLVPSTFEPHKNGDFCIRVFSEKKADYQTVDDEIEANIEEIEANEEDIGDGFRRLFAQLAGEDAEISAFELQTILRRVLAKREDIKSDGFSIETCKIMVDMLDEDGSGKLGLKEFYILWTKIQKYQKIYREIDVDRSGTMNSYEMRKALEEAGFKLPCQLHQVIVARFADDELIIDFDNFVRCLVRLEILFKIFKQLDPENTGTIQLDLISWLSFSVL
T4 sequence (Q64537 1-270 partner): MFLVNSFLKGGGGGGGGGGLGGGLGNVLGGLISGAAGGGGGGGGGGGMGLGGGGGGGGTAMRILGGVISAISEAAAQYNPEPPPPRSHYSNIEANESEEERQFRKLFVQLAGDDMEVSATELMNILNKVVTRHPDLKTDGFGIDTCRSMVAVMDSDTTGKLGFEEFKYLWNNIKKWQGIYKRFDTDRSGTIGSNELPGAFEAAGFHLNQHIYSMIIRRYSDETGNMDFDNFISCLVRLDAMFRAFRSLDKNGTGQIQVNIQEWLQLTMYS
Summary of the method: as §1

in vivo = settings: rat, po
Protocol: The LD50 value of the compound prepared in Example 94 was: >2,000 mg/kg.

m-calpain [3] = molecular target: T4, m-calpain; experiment: Confirmation of reversible inhibitory activity (remaining m-calpain activity after incubation with inhibitor); type: biochemical; settings: incubated 0 to 20 minutes at 10° C.; 10 μM-150 μM inhibitor solution (1 μl); FIGS. 1 to 3
Protocol: According to the assay for inhibitory activity against calpain in Experiment 1, reversible inhibitory activity of the present compounds was confirmed as follows.
To an imidazole buffer (54 μl ) were added 500 mM CaCl2 solution (1 μl), 5 mM solution of the synthetic substrate described in the literature (4 μl), 10 μM-150 μM inhibitor solution (1 μl) and m-calpain solution (40 μl), and the mixture was incubated for 0 to 20 minutes at a temperature of 10° C. Then, 100 mM EDTA solution (5 μl) was added to inactivate the enzymatic activity. To the mixture was then added imidazole buffer (900 μl) followed by an addition of 5 mM synthetic substrate solution (40 μl) and 500 mM CaCl2 solution (10 μl), and the decomposition rate of the synthetic substrate was measured for 10 minutes at a temperature of 30° C. to determine the remaining activity of the enzyme.
The compounds of Examples 3, 113 and 190 were used as the inhibitor, and E-64 which is an irreversible inhibitor was also used for comparison.

[4] = tested on: cardiac infarction animal models; settings: Arzneimittel Forschung/Drug Research, 36 (1986); cited from earlier work
production of IgE = settings: The Journal of Antibiotics, 42, p. 1362 (1989); cited from earlier work
[5] = tested on: rat which has an enhanced bone destruction by administration of parathyroid hormone; settings: cited from earlier work
[6] = tested on: experimental muscular dystrophy hamster; settings: Journal of Pharmacobio dynamics, 10, 678 (1987); cited from earlier work
aggregation of platelet = settings: Thrombosis Research, 57, p. 847 (1990); cited from earlier work
cataract animal models = settings: Investigative Ophthalmology & Visual Science, 32, p. 533 (1991); cited from earlier work
[7] = tested on: microtubule-associated protein; settings: Brain Research, 526, p. 177 (1990); cited from earlier work

SMILES	IC50 (cathepsin B) [nM]	IC50 (cathepsin L) [nM]	IC50 (m-calpain [2]) [nM]	remaining enzymatic activity after incubation with inhibitor (reversible inhibition) (m-calpain [3])	also measured
CC(=O)N[C@@H](CC(C)C)C(=O)N[C@@H](CC(C)C)C(=O)N[C@H](C=O)CCCNC(=N)N [leupeptin]	–	–	–	–	protection of axon in brain trauma models [1]: can protect axon
CCCC[C@H](NC(=O)[C@H](CC(C)C)NC(=O)c1cc(=O)c2ccccc2o1)C(=O)CSCc1ccco1 [94 (No. 188), (s)-1-furfurylthio-3-[(s)-4-methyl-2-(4-oxo-4H-1-benzopyranylcarbonylamino)valerylamino]-2-heptanone]	1100	24	9200	–	IC50 (papain): 770 nM; LD50 at 168 h (in vivo): > 2000 mg/kg
CCCC[C@H](NC(=O)[C@H](CC(C)C)NC(=O)COc1ccccc1)C(=O)CSCc1ccco1 [3 (No. 82), (s)-1-furfurylthio-3-((s)-4-methyl-2-phenoxyacetylaminovalerylamino)-2-heptanone]	710	16	3300	activity nearly equal to that of a control remained	IC50 (papain): 260 nM
CCOC(=O)[C@@H]1O[C@H]1C(=O)NC(CC(C)C)C(=O)N1CCN(Cc2ccc(OC)c(OC)c2OC)CC1.CCOC(=O)[C@@H]1O[C@H]1C(=O)NC(CC(C)C)C(=O)N1CCN(Cc2ccc(OC)c(OC)c2OC)CC1.O=S(=O)(O)O (some centres unmarked) [NCO-700]	–	–	–	–	effect on cardiac infarction [4]: effective on cardiac infarction
NC(N)=NCCCCNC(=O)[C@H](Cc1ccccc1)NC(=O)[C@H]1O[C@@H]1C(=O)O [Estatin A]	–	–	–	–	production of IgE (production of IgE): specifically inhibit the production of IgE without affecting on the production of IgG; calcium concentration and hydroxyproline concentration in blood [5]: decrease of calcium concentration and hydroxyproline concentration in blood
CCOC(=O)[C@H]1O[C@@H]1C(=O)N[C@@H](CC(C)C)C(=O)NCCC(C)C [E-64-d]	–	–	–	–	effect in experimental muscular dystrophy hamster [6]: life-prolonging effect; aggregation of platelet caused by thrombin (aggregation of platelet): suppressed aggregation of platelet caused by thrombin
CSCC(=O)[C@H](Cc1ccccc1)NC(=O)[C@H](CC(C)C)NC(=O)OCc1ccccc1 [Example 113, (s)-3-((s)-2-benzyloxycarbonylamino-4-methylvalerylamino)-1-methylthio-4-phenyl-2-butanone]	–	–	–	activity nearly equal to that of a control remained	–
CC(C)C[C@H](NC(=O)[C@H]1O[C@@H]1C(=O)O)C(=O)NCCCCNC(=N)N [E-64]	–	–	–	enzymatic activity rapidly disappeared in proportion to the incubation period	effect on cataract (cataract animal models): effective on cataract in animal models; calcium concentration and hydroxyproline concentration in blood [5]: decrease of calcium concentration and hydroxyproline concentration in blood
CC(C)C[C@H](NC(=O)OCc1ccccc1)C(=O)N[C@@H](Cc1ccccc1)C(=O)CN(C)C [190 (No. 465), (s)-3-((s)-2-benzyloxycarbonylamino-4-methylvalerylamino)-1-dimethylamino-4-phenyl-2-butanone]	1600	2800	7300	activity nearly equal to that of a control remained	IC50 (papain; Table 3, read-out: IC50 papain): 40000 nM
CC(C)CCNC(=O)[C@H](CC(C)C)NC(=O)[C@H]1O[C@@H]1C(=O)O [E-64-C]	–	–	–	–	degradation of microtubule-associated protein after brain ischemia [7]: inhibits the degradation of microtubule-associated protein after the brain ischemia
